Experimental data taken from patent publication US10689377B2 (Mirati Therapeutics, Inc., priority 2017, dated 2020).
pIC50: −log10 of the molar value.

What follows are compounds tested against KRas G12C (Homo sapiens, UniProt P01116, G12C) (assay: Cellular inhibition of KRas G12C measured by Phospho-ERK in NCI-H358 cells). Conditions: pERK(Thr202/Tyr204) normalized with GAPDH, NCI-H358 cells, 3 hours; read-out: IC50.
Assay type: cell-based
Outline: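 Following 8-12 h attachment, NCI-H358 cells got serially diluted compound (0.5% DMSO) for 3 hours. Cells were then fixed, permeabilized with cold methanol, and stained for pERK(Thr202/Tyr204) and GAPDH. Ratios were converted to percent of DMSO control, with IC50 obtained by four-parameter regression.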

Sequence of KRas G12C (P01116 1-188 isoform P01116-2 G12C): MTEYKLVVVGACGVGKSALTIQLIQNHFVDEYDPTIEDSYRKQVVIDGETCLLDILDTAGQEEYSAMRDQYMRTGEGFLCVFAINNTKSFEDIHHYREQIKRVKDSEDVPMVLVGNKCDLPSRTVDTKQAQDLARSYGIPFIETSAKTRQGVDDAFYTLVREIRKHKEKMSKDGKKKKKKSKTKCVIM

| Compound | pIC50 |
| --- | --- |
| C=CC(=O)N1CCN(c2nc(OC[C@@H]3C[C@@H](O)CN3C)nc3c2CCN(c2ccccc2C(F)(F)F)C3)CC1CC#N (stereo partly drawn) [Example 312, 2-[4-[2-[[(2S,4R)-4-hydroxy-1-methyl-pyrrolidin-2-yl]methoxy]-7-[2-(trifluoromethyl)phenyl]-6,8-dihydro-5H-pyrido[3,4-d]pyrimidin-4-yl]-1-prop-2-enoyl-piperazin-2-yl]acetonitrile] | 6.00 to 10.00 |
| C=CC(=O)N1CCN(c2nc(OC[C@@H]3CCN(C)C3)nc3c2CCN(c2c(C(F)(F)F)ccc4[nH]ncc24)C3)CC1CC#N (stereo partly drawn) [Example 313, 2-[4-[2-[[(3R)-1-methylpyrrolidin-3-yl]methoxy]-7-[5-(trifluoromethyl)-1H-indazol-4-yl]-6,8-dihydro-5H-pyrido[3,4-d]pyrimidin-4-yl]-1-prop-2-enoyl-piperazin-2-yl]acetonitrile] | 6.00 to 10.00 |
| C=CC(=O)N1CCN(c2nc(OC[C@@H]3CCCN3C)nc3c2CCN(c2cc(OC)cc4ccccc24)C3)C[C@@H]1CC#N [Example 314, 2-[(2S)-4-[7-(3-methoxy-1-naphthyl)-2-[[(2S)-1-methylpyrrolidin-2-yl]methoxy]-6,8-dihydro-5H-pyrido[3,4-d]pyrimidin-4-yl]-1-prop-2-enoyl-piperazin-2-yl]acetonitrile] | 6.00 to 10.00 |
| C=CC(=O)N1CCN(c2nc(OC[C@@H]3C[C@@H](O)CN3C)nc3c2CCN(c2cccc4ccccc24)C3)C[C@@H]1CC#N [Example 315, 2-[(2S)-4-[2-[[(2S,4R)-4-hydroxy-1-methyl-pyrrolidin-2-yl]methoxy]-7-(1-naphthyl)-6,8-dihydro-5H-pyrido[3,4-d]pyrimidin-4-yl]-1-prop-2-enoyl-piperazin-2-yl]acetonitrile] | 6.00 to 10.00 |
| C=CC(=O)N1CCN(c2nc(OC[C@@H]3CCCN3C)nc3c2CCN(c2ccc(F)c4ccccc24)C3)C[C@@H]1CC#N [Example 316, 2-((S)-1-acryloyl-4-(7-(4-fluoronaphthalen-1-yl)-2-(((S)-1-methylpyrrolidin-2-yl)methoxy)-5,6,7,8-tetrahydropyrido[3,4-d]pyrimidin-4-yl)piperazin-2-yl)acetonitrile] | 6.00 to 10.00 |
| C=CC(=O)N1CCN(c2nc(OC[C@@H]3CCCN3C)nc3c2CCN(c2cc(O)cc4ccccc24)C3)C[C@@H]1CC#N [Example 317] | 6.00 to 10.00 |
| C=CC(=O)N1CCN(c2nc(OC[C@H]3CCCN3C)nc3c2CCN(c2ccc(F)c4ccccc24)C3)C[C@@H]1CC#N [Example 318, 2-[(2S)-4-[7-(4-fluoro-1-naphthyl)-2-[[(2R)-1-methylpyrrolidin-2-yl]methoxy]-6,8-dihydro-5H-pyrido[3,4-d]pyrimidin-4-yl]-1-prop-2-enoyl-piperazin-2-yl]acetonitrile] | 6.00 to 10.00 |
| C=CC(=O)N1CCN(c2nc(OC[C@H]3CCCN3C)nc3c2CCN(c2cccc(Cl)c2C(F)(F)F)C3)C[C@@H]1CC#N [Example 319, 2-((S)-1-acryloyl-4-(7-(3-chloro-2-(trifluoromethyl)phenyl)-2-(((R)-1-methylpyrrolidin-2-yl)methoxy)-5,6,7,8-tetrahydropyrido[3,4-d]pyrimidin-4-yl)piperazin-2-yl)acetonitrile] | 6.00 to 10.00 |
| C=CC(=O)N1CCN(c2nc(OC[C@@H]3CCCN3C(C)C)nc3c2CCN(c2cccc4ccccc24)C3)C[C@@H]1CC#N [Example 320, 2-[(2S)-4-[2-[[(2S)-1-isopropylpyrrolidin-2-yl]methoxy]-7-(1-naphthyl)-6,8-dihydro-5H-pyrido[3,4-d]pyrimidin-4-yl]-1-prop-2-enoyl-piperazin-2-yl]acetonitrile] | 6.00 to 10.00 |
| C=CC(=O)N1CCN(c2nc(OC[C@@H]3CCCN3C)nc3c2CCN(c2c(O)cccc2F)C3)[C@@H](C)C1 [Example 321, 1-[(3S)-4-[7-(2-fluoro-6-hydroxy-phenyl)-2-[[(2S)-1-methylpyrrolidin-2-yl]methoxy]-6,8-dihydro-5H-pyrido[3,4-d]pyrimidin-4-yl]-3-methyl-piperazin-1-yl]prop-2-en-1-one] | < 6.00 |
| C=CC(=O)N1CCN(c2nc(OC[C@@H]3CCCN3CC)nc3c2CCN(c2ccc(F)c4ccccc24)C3)CC1CC#N (stereo partly drawn) [Example 322, 2-(1-acryloyl-4-(2-(((S)-1-ethylpyrrolidin-2-yl)methoxy)-7-(4-fluoronaphthalen-1-yl)-5,6,7,8-tetrahydropyrido[3,4-d]pyrimidin-4-yl)piperazin-2-yl)acetonitrile] | 6.00 to 10.00 |
| C=CC(=O)N1CCN(c2nc(OC[C@H]3C[C@H](O)CN3C)nc3c2CCN(c2cccc4ccccc24)C3)C[C@@H]1CC#N [Example 323, 2-[(2S)-4-[2-[[(2R,4S)-4-hydroxy-1-methyl-pyrrolidin-2-yl]methoxy]-7-(1-naphthyl)-6,8-dihydro-5H-pyrido[3,4-d]pyrimidin-4-yl]-1-prop-2-enoyl-piperazin-2-yl]acetonitrile] | 6.00 to 10.00 |
| C=CC(=O)N1CCN(c2nc(OC[C@@H]3CCCN3C)nc3c2CCN(c2cccc(OC)c2C)C3)C[C@@H]1CC#N [Example 324, 2-[(2S)-4-[7-(3-methoxy-2-methyl-phenyl)-2-[[(2S)-1-methylpyrrolidin-2-yl]methoxy]-6,8-dihydro-5H-pyrido[3,4-d]pyrimidin-4-yl]-1-prop-2-enoyl-piperazin-2-yl]acetonitrile] | 6.00 to 10.00 |
| C=CC(=O)N1CCN(c2nc(OC[C@@H]3CCCN3C)nc3c2CCN(c2ccccc2C#N)C3)C[C@@H]1CC#N [Example 325, 2-[4-[(3S)-3-(cyanomethyl)-4-prop-2-enoyl-piperazin-1-yl]-2-[[(2S)-1-methylpyrrolidin-2-yl]methoxy]-6,8-dihydro-5H-pyrido[3,4-d]pyrimidin-7-yl]benzonitrile] | < 6.00 |
| C=CC(=O)N1CCN(c2nc(OC[C@@H]3CCCN3C)nc3c2CCN(c2cccc4ccc(C)cc24)C3)C[C@@H]1CC#N [Example 326, 2-((S)-1-acryloyl-4-(7-(7-methylnaphthalen-1-yl)-2-(((S)-1-methylpyrrolidin-2-yl)methoxy)-5,6,7,8-tetrahydropyrido[3,4-d]pyrimidin-4-yl)piperazin-2-yl)acetonitrile] | 6.00 to 10.00 |
| C=CC(=O)N1CCN(c2nc(OC[C@@H]3C[C@@H](OC)CN3C)nc3c2CCN(c2cccc4ccccc24)C3)C[C@@H]1CC#N [Example 327, 2-((S)-1-acryloyl-4-(2-(((2S,4R)-4-methoxy-1-methylpyrrolidin-2-yl)methoxy)-7-(naphthalen-1-yl)-5,6,7,8-tetrahydropyrido[3,4-d]pyrimidin-4-yl)piperazin-2-yl)acetonitrile] | 6.00 to 10.00 |
| C=CC(=O)N1CCN(c2nc(OC[C@@H]3CCCN3C)nc3c2CCN(c2cccc(F)c2C(F)(F)F)C3)C[C@@H]1CC#N [Example 328] | 6.00 to 10.00 |
| C=CC(=O)N1CCN(c2nc(OC[C@H]3CCCN3CCO)nc3c2CCN(c2cccc4ccccc24)C3)C[C@@H]1CC#N [Example 329, 2-[(2S)-4-[2-[[(2R)-1-(2-hydroxyethyl)pyrrolidin-2-yl]methoxy]-7-(1-naphthyl)-6,8-dihydro-5H-pyrido[3,4-d]pyrimidin-4-yl]-1-prop-2-enoyl-piperazin-2-yl]acetonitrile] | 6.00 to 10.00 |
| C=CC(=O)N1CCN(c2nc(OC[C@@H]3CCCN3C)nc3c2CCN(c2cccc(OC)c2C(F)(F)F)C3)C[C@@H]1CC#N [Example 330, 2-[(2S)-4-[7-[3-methoxy-2-(trifluoromethyl)phenyl]-2-[[(2S)-1-methylpyrrolidin-2-yl]methoxy]-6,8-dihydro-5H-pyrido[3,4-d]pyrimidin-4-yl]-1-prop-2-enoyl-piperazin-2-yl]acetonitrile] | 6.00 to 10.00 |
